Earlier results in patent US20190307696A1, “TABLETS COMPRISING MIRABEGRON AND SOLIFENACIN” (SYNTHON B.V., priority 2016, published 2019).

How the values were obtained:
[1] = presence of food in the GI tract
[2] = neutral to acidic pH

- permeability (BCS): low permeability
- solubility (BCS): high solubility
SMILES: Nc1nc(CC(=O)Nc2ccc(CCNC[C@H](O)c3ccccc3)cc2)cs1 [Mirabegron]
- bioavailability [1]: affected by the presence of food in the GI tract
- solubility in water [2]: soluble in water between neutral to acidic pH
